According to US11578087B2, “Oxaborole esters and uses thereof” (priority 2016, dated 2023):
pIC50: −log10 of the molar value.

Assays:
[1] = tested on: IL3000 T. congolense (drug sensitive) strain; assay: In vitro Alamar Blue 72 h drug sensitivity assay for T. congolense; type: cell-based, Trypanosoma congolense; details: Trypanosoma congolense, 72 h, bloodstream form, 69 h + 3 h Resazurin, 34° C., read-out: IC50: I Org. Growth T. congolense 3 d
How it was run: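 Bloodstream-form trypanosomes in HMI medium with 20% bovine serum were exposed to compounds for 69 h at 34° C, 5% CO2, then resazurin for another 3 h. Fluorescence read at ex 536/em 588 nm; IC50 from 11-point sigmoidal dose-response curves, at least three independent runs.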

[2] = tested on: T. cruzi amastigote (Td Tomato-modified) in Vero cells; assay: In vitro IC50 measurement of T. cruzi amastigote killing using Td Tomato-modified T. cruzi; type: cell-based; details: Trypanosoma cruzi, 72 h, fluorescence, read-out: IC50: I Org. amastigote Growth T. cruzi 3 d
How it was run: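 Vero cells infected with Td Tomato-expressing T. cruzi, treated with compound at 5 uM to 5 nM final, incubated 72 h at 37 °C. Fluorescence (Ex 544/Em 612 nm) read at Day 0 and Day 3, Day 0 subtracted; IC50 and IC90 by nonlinear regression.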

| SMILES | pIC50 [1] | pIC50 [2] |
| --- | --- | --- |
| Cc1c(C(=O)N[C@H](C(=O)OCc2ccc(S(C)(=O)=O)c(CN(C)C)c2)C(C)C)ccc2c1B(O)OC2 [Example 6-110, 3-((Dimethylamino)methyl)-4-(methylsulfonyl)benzyl (1-hydroxy-7-methyl-1,3-dihydrobenzo[c][1,2]oxaborole-6-carbonyl)-L-valinate] | 8.00 to 9.29 | 6.00 to 7.68 |
| Cc1c(C(=O)N[C@H](C(=O)OCC2COCCOC2)C(C)C)ccc2c1B(O)OC2 [Example 6-157, (1,4-Dioxepan-6-yl)methyl (1-hydroxy-7-methyl-1,3-dihydrobenzo[c][1,2]oxaborole-6-carbonyl)-L-valinate] | > 9.30 | 6.00 to 7.68 |
| Cc1c(C(=O)NC2(C(=O)OCc3ccc(F)cc3)CCC2)ccc2c1B(O)OC2 [Example 6-066, 4-Fluorobenzyl 1-(1-hydroxy-7-methyl-1,3-dihydrobenzo[c][1,2]oxaborole-6-carboxamido)cyclobutane-1-carboxylate] | > 9.30 | ≥ 7.70 |
| Cc1c(C(=O)N[C@H](C(=O)OCc2ccc(C#N)cn2)C(C)C)ccc2c1B(O)OC2 [Example 6-200, (5-cyanopyridin-2-yl)methyl (1-hydroxy-7-methyl-1,3-dihydrobenzo[c][1,2]oxaborole-6-carbonyl)-L-valinate] | > 9.30 | ≥ 7.70 |
| Cc1c(C(=O)N[C@H](C(=O)OCC2COC2)C(C)C)ccc2c1B(O)OC2 [Example 6-150, Oxetan-3-ylmethyl (1-hydroxy-7-methyl-1,3-dihydrobenzo[c][1,2]oxaborole-6-carbonyl)-L-valinate] | 8.00 to 9.29 | 6.00 to 7.68 |
| CC(C)[C@H](NC(=O)c1ccc2c(c1)B(O)OC2)C(=O)O[C@@H](C)c1ccccc1 [Example 6-023, (S)-1-Phenylethyl (1-hydroxy-1,3-dihydrobenzo[c][1,2]oxaborole-6-carbonyl)-L-valinate] | 5.30 to 8.00 | ≤ 6.00 |
| Cc1c(C(=O)N[C@H](C(=O)OCc2cccc(C#N)n2)C(C)C)ccc2c1B(O)OC2 [Example 6-189, (6-cyanopyridin-2-yl)methyl (1-hydroxy-7-methyl-1,3-dihydrobenzo [c][1,2]oxaborole-6-carbonyl)-L-valinate] | > 9.30 | ≥ 7.70 |
| Cc1c(C(=O)N[C@H](C(=O)OCCCN2CCOCC2)C(C)C)ccc2c1B(O)OC2 [Example 6-208, 3-morpholinopropyl (1-hydroxy-7-methyl-1,3-dihydrobenzo[c][1,2]oxaborole-6-carbonyl)-L-valinate] | 8.00 to 9.29 | 6.00 to 7.68 |
| C[C@H](NC(=O)c1ccc2c(c1)B(O)OC2)C(=O)O [Example 6-164, (1-Hydroxy-1,3-dihydrobenzo[c][1,2]oxaborole-6-carbonyl)-L-alanine] | 5.30 to 8.00 | ≤ 6.00 |
| Cc1c(C(=O)N[C@H](C(=O)OC2COC2)C(C)C)ccc2c1B(O)OC2 [Example 6-135, Oxetan-3-yl (1-hydroxy-7-methyl-1,3-dihydrobenzo[c][1,2]oxaborole-6-carbonyl)-L-valinate] | > 9.30 | 6.00 to 7.68 |
| Cc1c(C(=O)N[C@H](C(=O)OCC(C)N2CCOCC2)C(C)C)ccc2c1B(O)OC2 (stereo partly drawn) [Example 6-207, 2-morpholinopropyl (1-hydroxy-7-methyl-1,3-dihydrobenzo[c][1,2]oxaborole-6-carbonyl)-L-valinate] | 8.00 to 9.29 | 6.00 to 7.68 |
| Cc1c(C(=O)N[C@H](C(=O)OCc2ncc3ccccc3n2)C(C)C)ccc2c1B(O)OC2 [Example 6-137, Quinazolin-2-ylmethyl (1-hydroxy-7-methyl-1,3-dihydrobenzo[c][1,2]oxaborole-6-carbonyl)-L-valinate] | > 9.30 | ≥ 7.70 |
| CCc1c(C(=O)N[C@H](C(=O)OCc2ccccc2)C(C)C)ccc2c1B(O)OC2 [Example 6-053, Benzyl (7-ethyl-1-hydroxy-1,3-dihydrobenzo[c][1,2]oxaborole-6-carbonyl)-L-valinate] | > 9.30 | 6.00 to 7.68 |
